Experimental data published in patent publication EP0111607A1, “Tropyl and pseudotropyl alkyl-benzoates and their use in migraine treatment” (MERRELL TORAUDE ET COMPAGNIE, priority 1982, dated 1984).
Where two headings read alike, the source gives them in different places.

Experiments:
5-HT M-receptor [1] = target: T1, 5-HT M-receptor (Oryctolagus cuniculus, UniProt G1TUQ4); conditions: 5-HT M-receptor antagonism, cited from earlier work
T1 sequence (G1TUQ4 24-513): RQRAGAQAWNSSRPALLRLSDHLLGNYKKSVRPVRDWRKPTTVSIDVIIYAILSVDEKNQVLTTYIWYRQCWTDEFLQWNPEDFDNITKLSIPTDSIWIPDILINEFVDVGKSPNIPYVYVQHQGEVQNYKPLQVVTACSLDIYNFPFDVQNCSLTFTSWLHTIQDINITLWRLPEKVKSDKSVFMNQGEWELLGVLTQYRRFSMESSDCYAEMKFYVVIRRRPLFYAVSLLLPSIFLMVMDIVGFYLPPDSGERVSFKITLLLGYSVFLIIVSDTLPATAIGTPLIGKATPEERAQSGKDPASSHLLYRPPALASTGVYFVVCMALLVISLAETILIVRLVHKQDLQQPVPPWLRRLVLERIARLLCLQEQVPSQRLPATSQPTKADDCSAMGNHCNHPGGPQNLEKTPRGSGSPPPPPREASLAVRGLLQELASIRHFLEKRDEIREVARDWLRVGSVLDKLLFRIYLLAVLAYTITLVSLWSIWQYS

5-HT M-receptor [2] = target: T1, 5-HT M-receptor; test: pA2 against 5-HT in the isolated rabbit heart
Procedure: The activity of the compounds against 5-HT can be assessed by determining their pA2 values in the isolated rabbit heart as described by Fozard et at Europ. J. Pharmacol. 59, 195-210 (1979). In the method described the molar concentration of antagonist which reduces the effects of twice the ED50 of 5-HT to that of the ED50 in the absence of antagonist is determined. The pA2 value is the negative logarithm of said molar concentrations.

[3] = reported by Fozard et al., Eur. J. Pharmacol. 59(1979) and 49(1978), same procedure
[4] = Table II, representative compounds of Formula I
[5] = Table III, related compounds for comparative purposes
[6] = tests referred to with European Patent Application No. 82401060.7

SMILES: CCN(CC)CCNC(=O)c1cc(Cl)c(N)cc1OC [metoclopramide]
- pA2 (5-HT M-receptor [1]; [3]): 7.2

SMILES: COC(=O)[C@H]1[C@@H](OC(=O)c2ccccc2)C[C@@H]2CC[C@H]1N2 [nor(-)cocaine]
- pA2 (5-HT M-receptor [1]; [3]): 7.7

SMILES: Cc1cc(C)cc(C(=O)OC2CC3CCC(C2)N3C)c1 (stereo not drawn) [pseudotropyl 3,5-dimethylbenzoate, 3,5-DIMETHYL-BENZOIC ACID EXO-8-METHYL-8-AZABICYCLO[3,2,1]OCT-3-YL ESTER]
- pA2 5-HT (5-HT M-receptor [2]; [4]): 8.9

SMILES: CN1C2CCC1CC(OC(=O)c1ccccc1)C2 (stereo not shown) [pseudotropyl benzoate]
- pA2 5-HT (5-HT M-receptor [2]; [5]): 7.0
- pA2 (5-HT M-receptor [1]; [3]): 7.0

SMILES: COc1cc(C(=O)OC2CC3CCC(C2)N3C)cc(OC)c1OC (stereo not shown) [pseudotropyl-3,4,5-trimethoxybenzoate]
- pA2 (5-HT M-receptor [1]; [6]): 5.7

SMILES: CN1C2CCC1CC(OC(=O)c1ccc(Cl)c(Cl)c1)C2 (stereo not shown) [pseudotropyl-3,4-dichlorobenzoate]
- pA2 5-HT (5-HT M-receptor [2]; [5]): 7.5

SMILES: COc1cc(OC)cc(C(=O)OC2CC3CCC(C2)N3C)c1 (stereo not shown) [pseudotropyl-3,5-dimethoxybenzoate]
- pA2 (5-HT M-receptor [1]; [6]): 6.6

SMILES: CN1C2CCC1CC(OC(=O)c1ccc(Cl)cc1)C2 (stereo not shown) [pseudotropyl-4-chlorobenzoate]
- pA2 5-HT (5-HT M-receptor [2]; [5]): 6.7

SMILES: Cc1ccc(C(=O)OC2CC3CCC(C2)N3C)c(C)c1 (stereo not shown) [tropyl 2,4-dimethylbenzoate]
- pA2 5-HT (5-HT M-receptor [2]; [4]): 8.8

SMILES: Cc1ccc(C)c(C(=O)OC2CC3CCC(C2)N3C)c1 (stereo not shown) [tropyl 2,5-dimethylbenzoate]
- pA2 5-HT (5-HT M-receptor [2]; [4]): 8.6

SMILES: Cc1ccccc1C(=O)OC1CC2CCC(C1)N2C (stereo not shown) [tropyl 2-methylbenzoate]
- pA2 5-HT (5-HT M-receptor [2]; [4]): 8.1.

SMILES: COc1ccc(C(=O)O[C@H]2C[C@H]3CC[C@@H](C2)N3C)cc1OC [tropyl 3,4-dimethoxybenzoate]
- pA2 (5-HT M-receptor [1]; [6]): 7.2

SMILES: Cc1ccc(C(=O)OC2CC3CCC(C2)N3C)cc1C (stereo not drawn) [tropyl 3,4-dimethylbenzoate, 3,4-DIMET[…] ENDO-8-METHYL-8-AZABICYCLO[3,2,1]OCT-3-YL ESTER]
- pA2 5-HT (5-HT M-receptor [2]; [4]): 8.2

SMILES: Cc1cccc(C(=O)OC2CC3CCC(C2)N3C)c1 (stereo not shown) [tropyl 3-methylbenzoate]
- pA2 5-HT (5-HT M-receptor [2]; [5]): 8.1

SMILES: CN1C2CCC1CC(OC(=O)c1ccc(Cl)cc1)C2 (stereo not shown) [tropyl 4-chlorobenzoate]
- pA2 (5-HT M-receptor [1]; [6]): 7.0

SMILES: Cc1ccc(C(=O)O[C@H]2C[C@H]3CC[C@@H](C2)N3C)cc1 [tropyl 4-methylbenzoate]
- pA2 (5-HT M-receptor [1]; [6]): 7.8

SMILES: CN1[C@@H]2CC[C@H]1C[C@@H](OC(=O)c1ccccc1)C2 [tropyl benzoate]
- pA2 (5-HT M-receptor [1]; [3]): 7.2

SMILES: CN1C2CCC1CC(OC(=O)c1ccc(Cl)c(Cl)c1)C2 (stereo not shown) [tropyl-3,4-dichlorobenzoate]
- pA2 (5-HT M-receptor [1]; [6]): 7.8
